Data: article PMC6917776, “Discovery of a chemical probe for PRDM9” (Nature Communications, 2019)
“And” between values parts separate entries of the source, which are not always exact repeats. Identical values can stand only once. Like-named read-outs stand apart in the source and are kept apart here.

What was measured:
[1] = biological target: T1, PRDM9 (amino acids: 195–415) (Homo sapiens, UniProt Q9NQV7); assay: PRDM9 methyltransferase activity assay (3H-SAM scintillation proximity assay); assay type: biochemical
T1 construct: PRDM9 (amino acids: 195–415)
T1 sequence (Q9NQV7 195-415): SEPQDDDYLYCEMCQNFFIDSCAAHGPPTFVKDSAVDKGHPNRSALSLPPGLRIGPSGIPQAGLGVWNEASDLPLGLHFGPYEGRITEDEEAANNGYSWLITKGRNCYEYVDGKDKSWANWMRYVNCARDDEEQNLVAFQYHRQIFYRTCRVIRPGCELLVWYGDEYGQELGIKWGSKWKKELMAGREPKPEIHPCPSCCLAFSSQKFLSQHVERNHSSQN
Experimental: Methyltransferase activity assays for PRDM9 (amino acids: 195–415) were performed by monitoring the incorporation of tritium-labeled methyl group from ^3H-SAM to H3 (1–25) peptide using scintillation proximity assay (SPA). The enzymatic reactions were performed at 23 °C with 30 min incubation in 20 mM Tris-HCl (pH 7.5), 5 mM DTT, 0.01% Triton X-100 and 1% DMSO containing 71 μM of SAM (5 μM of ^3H-SAM), 4 μM of biotinylated H3 (1–25) peptide and 5 nM of PRDM9. For PRDM7, reactions were performed at 23 °C with 90 min incubation in 20 mM BTP pH 9.0, 5 mM DTT, 0.01% Triton X-100 and 1% DMSO containing 900 μM of SAM (5 μM of ^3H-SAM), 4 μM of biotinylated H3 (1–25) peptide and 100 nM of enzyme. […] To stop the reactions, 10 μL of 7.5 M guanidine hydrochloride was added to 10 μL of reaction mixture, followed by 60 μL of buffer (20 mM Tris, pH 8.0), mixed, and transferred to a 384-well streptavidin coated Flash-plate. After mixing, the mixtures in Flash-plate were incubated for 2 h, and the CPM counts were measured using TopCount plate reader. All enzymatic reactions were performed in triplicate, and IC50 values were determined by fitting the data to Four Parameter Logistic equation using the GraphPad Prism software.

[2] = test system: CAL851; assay: CelltiterGlo viability cell assay; assay type: cell-based; conditions: up to 30 μM; days 3 and 6; Prdm9 expressing line
Experimental: (§1) Supplementary Figure 13. […] Viability of
(§2) (a) Multiple Myeloma lines and (b) Breast Cancer cell lines following 3 or 6 days treatment with […]
(§3) manufacturer’s instructions as described in the Supplementary methods. Data are normalized to DMSO control. N=3 biological replicates, +/- SEM. Source data are provided as a Source Data […]
(§4) CelltiterGlo viability cell assay
(§5) Cells were seeded in 96 well plates at per-well densities of 10000 (MDA-MB436, ATCC-HTB130), 15000 (8226, kind gift from Rodger Tiedemann, Princess Margaret Cancer Centre), […]
(§6) kind gift from Rodger Tiedemann, Princess Margaret Cancer Centre) and 50000 (CAL851, kind gift from Mathieu Lupien, Princess Margaret Cancer Centre) and were treated at increasing concentrations of compounds ranging from 0.01 μM to 30 μM and assessed for proliferation using CelltiterGlo (Promega) following manufacturer’s instructions, as readout on days 3 and 6 as indicated. All cell lines were mycoplasma negative, as determined by MycoAlert™ Mycoplasma Detection Kit(Lonza). […]

[3] = test system: RPMI-8226; assay: CelltiterGlo viability cell assay; assay type: cell-based; conditions: up to 30 μM; days 3 and 6; matched control line
Experimental: as §1, §2, §3, §4, §5, §6

[4] = test system: SKMM2; assay: CelltiterGlo viability cell assay; assay type: cell-based; conditions: up to 30 μM; days 3 and 6; Prdm9 expressing line
Experimental: as §1, §2, §3, §4, §5, §6

## COc1cc(OC)cc(-c2noc(N3CCN(C)C4(CCN(c5ccnc(C)c5)CC4)C3)n2)c1 [MRK-740]
[1]; 0.00305176 µM compound, 0.00305176 µM
  PRDM9-Activity %, single experiments: 94.4267% and 95.25% and 97.1828% and 103.784% and 103.017%
[1]; 0.00305176 µM compound, n=6, read-out: PRDM9-Activity %, Average
  activity at 0.00305176 µM: 97.6%
[1]; 0.00305176 µM compound, read-out: PRDM9-Activity %, single experiments
  activity at 0.00305176 µM: 91.9%
[1]; 0.00610352 µM compound, 0.00610352 µM
  PRDM9-Activity %, single experiments: 85.0663% and 85.348% and 95.7626% and 97.3747% and 91.3487%
[1]; 0.00610352 µM compound, n=6 MRK-740, n=3 MRK-740-NC, read-out: PRDM9-Activity %, Average
  activity at 0.00610352 µM: 90%
[1]; 0.00610352 µM compound, read-out: PRDM9-Activity %, single experiments
  activity at 0.00610352 µM: 84.8%
[1]; 0.012207 µM compound, 0.012207 µM
  PRDM9-Activity %, single experiments: 78.4578% and 80.6028% and 86.1288% and 97.1828% and 87.357%
[1]; 0.012207 µM compound, n=6 MRK-740, n=3 MRK-740-NC, read-out: PRDM9-Activity %, Average
  activity at 0.012207 µM: 84.8%
[1]; 0.012207 µM compound, read-out: PRDM9-Activity %, single experiments
  activity at 0.012207 µM: 79.3%
[1]; 0.0244141 µM compound, 0.0244141 µM
  PRDM9-Activity %, single experiments: 75.966% and 79.6061% and 75.3435% and 72.6952% and 77.5697%
[1]; 0.0244141 µM compound, n=6 MRK-740, n=3 MRK-740-NC, read-out: PRDM9-Activity %, Average
  activity at 0.0244141 µM: 75.8%
[1]; 0.0244141 µM compound, read-out: PRDM9-Activity %, single experiments
  activity at 0.0244141 µM: 73.4%
[1]; 0.0488281 µM compound, 0.0488281 µM
  PRDM9-Activity %, single experiments: 59.9538% and 62.5322% and 63.7138% and 61.8331% and 62.9462%
[1]; 0.0488281 µM compound, n=6 MRK-740, n=3 MRK-740-NC, read-out: PRDM9-Activity %, Average
  activity at 0.0488281 µM: 62.6%
[1]; 0.0488281 µM compound, read-out: PRDM9-Activity %, single experiments
  activity at 0.0488281 µM: 64.9%
[1]; 0.0976562 µM compound, 0.0976562 µM
  PRDM9-Activity %, single experiments: 47.0617% and 46.4983% and 51.163% and 50.5105% and 50.3953%
[1]; 0.0976562 µM compound, n=6 MRK-740, n=3 MRK-740-NC, read-out: PRDM9-Activity %, Average
  activity at 0.0976562 µM: 49%
[1]; 0.0976562 µM compound, read-out: PRDM9-Activity %, single experiments
  activity at 0.0976562 µM: 48.6%
[1]; 0.195312 µM compound, 0.195312 µM
  PRDM9-Activity %, single experiments: 35.2529% and 35.7729% and 39.7252% and 37.4223% and 38.9192%
[1]; 0.195312 µM compound, n=6 MRK-740, n=3 MRK-740-NC, read-out: PRDM9-Activity %, Average
  activity at 0.195312 µM: 36.7%
[1]; 0.195312 µM compound, read-out: PRDM9-Activity %, single experiments
  activity at 0.195312 µM: 33%
[1]; 0.390625 µM compound, 0.390625 µM
  PRDM9-Activity %, single experiments: 22.6425% and 27.2793% and 26.6754% and 26.8289% and 30.4368%
[1]; 0.390625 µM compound, n=6 MRK-740, n=3 MRK-740-NC, read-out: PRDM9-Activity %, Average
  activity at 0.390625 µM: 26.6%
[1]; 0.390625 µM compound, read-out: PRDM9-Activity %, single experiments
  activity at 0.390625 µM: 25.4%
[1]; 0.78125 µM compound, 0.78125 µM
  PRDM9-Activity %, single experiments: 15.1455% and 15.3839% and 20.1505% and 16.3507% and 20.304%
[1]; 0.78125 µM compound, n=6 MRK-740, n=3 MRK-740-NC, read-out: PRDM9-Activity %, Average
  activity at 0.78125 µM: 17.5%
[1]; 0.78125 µM compound, read-out: PRDM9-Activity %, single experiments
  activity at 0.78125 µM: 17.8%
[1]; 1.5625 µM compound, 1.5625 µM
  PRDM9-Activity %, single experiments: 9.274% and 10.0537% and 12.7044% and 15.0841% and 15.1608%
[1]; 1.5625 µM compound, n=6 MRK-740, n=3 MRK-740-NC, read-out: PRDM9-Activity %, Average
  activity at 1.5625 µM: 12%
[1]; 1.5625 µM compound, read-out: PRDM9-Activity %, single experiments
  activity at 1.5625 µM: 9.56%
[1]; 3.125 µM compound, 3.125 µM
  PRDM9-Activity %, single experiments: 7.757% and 8.32% and 10.555% and 9.672% and 9.096%
[1]; 3.125 µM compound, n=6 MRK-740, n=3 MRK-740-NC, read-out: PRDM9-Activity %, Average
  activity at 3.125 µM: 8.8%
[1]; 3.125 µM compound, read-out: PRDM9-Activity %, single experiments
  activity at 3.125 µM: 7.39%
[1]; 6.25 µM compound, 6.25 µM
  PRDM9-Activity %, single experiments: 4.5935% and 6.024% and 7.753% and 9.173% and 6.448%
[1]; 6.25 µM compound, n=6 MRK-740, n=3 MRK-740-NC, read-out: PRDM9-Activity %, Average
  activity at 6.25 µM: 6.57%
[1]; 6.25 µM compound, read-out: PRDM9-Activity %, single experiments
  activity at 6.25 µM: 5.42%
[1]; 12.5 µM compound, 12.5 µM
  PRDM9-Activity %, single experiments: 3.185% and 3.8568% and 5.834% and 4.491% and 4.606%
[1]; 12.5 µM compound, n=6 MRK-740, n=3 MRK-740-NC, read-out: PRDM9-Activity %, Average
  activity at 12.5 µM: 4.37%
[1]; 12.5 µM compound, read-out: PRDM9-Activity %, single experiments
  activity at 12.5 µM: 4.27%
[1]; 25 µM compound, 25 µM
  PRDM9-Activity %, single experiments: 2.7301% and 2.167% and 2.752% and 4.337% and 5.373% and 4.529%
[1]; 25 µM compound, n=6 MRK-740, n=3 MRK-740-NC, read-out: PRDM9-Activity %, Average
  activity at 25 µM: 3.65%
[1]; 50 µM compound, 50 µM
  PRDM9-Activity %, single experiments: 2.405% and 1.7984% and 3.488% and 4.913% and 5.45% and 4.529%
[1]; 50 µM compound, n=6 MRK-740, n=3 MRK-740-NC, read-out: PRDM9-Activity %, Average
  activity at 50 µM: 3.76%
[1]; PRDM9, 1µM compound, Exp1, Exp2, 1 µM
  Activity %: 11%
[1]; PRDM9, 1µM compound, Exp1, Exp2, read-out: Activity %
  activity at 1 µM: 10%
[1]; PRDM9, 10µM compound, Exp1, Exp2, 10 µM
  Activity %: 2.5%
[1]; PRDM9, 10µM compound, Exp1, Exp2, read-out: Activity %
  activity at 10 µM: 3%
[1]; biotinylated H3 (1–25) peptide, balanced conditions, mean ± standard deviation
  IC50: 80 ± 16 nM
[2]
  Effect on proliferation (in words): did not have any significant effect
[3]
  Effect on proliferation (in words): did not have any significant effect
[4]
  Effect on proliferation (in words): did not have any significant effect
